Source: article PMC9814205, “Targeting undruggable carbohydrate recognition sites through focused fragment library design” (Communications Chemistry, 2022)
Values joined by “and” are separate entries in the source; they are usually repeats but may differ in a detail not shown here. Equal entries are not always repeated. “Also recorded” adds a separate entry of the source.

What was measured:
Type in all cases: binding
LecA [1] = biological target: T1, LecA (Pseudomonas aeruginosa, UniProt Q05097); experiment: Competitive fluorescence polarization (FP) assay; conditions: for Inhibition in FP: compared to MeGal at 10 mM (16 h); for inhibition at 10000 µM: read-out: Inhibition in FP, compared to MeGal at 10 mM (16 h)
T1 construct: made in house
Procedure: The FP assay was performed in a black 384-well plate (Greiner Bio-One, Germany, 781900) with the final volume of 20 µL as described previously. Briefly, 10 µL of a sample solution series (10–0.078 mM) in TBS buffer containing 10 mM Ca^2+ (TBS/Ca^2+-buffer) and 20% DMSO were added in technical triplicates to 10 µL LecA (40 µM) preincubated with a galactose-based Cy5 conjugate[68] (20 nM) in TBS/Ca^2+-buffer. […] The plate was sealed (EASYseal, Greiner Bio-One, 676,001), centrifuged (1 min, 1500 rpm, 25 °C) and incubated in a humidity chamber for 16 h. The fluorescence was measured with an excitation 590 nm and emission 675 nm filter[68] on a PheraStar FS plate reader (BMG Labtech GmbH, Germany). The blank signal of TBS/Ca^2+-buffer containing 10% DMSO was subtracted and the compounds were analyzed with the MARS Data Analysis Software (BMG Labtech GmbH Germany) using the four-parameter variable slope model. The top and bottom plateaus were defined according to the positive controls. The graphs were visualized using Graphpad Prism 5. The percentage (%) of inhibition was calculated at the highest concentration compared with 10 mM MeGal set to 100%.

15N LecA = biological target: T2, 15N LecA (Pseudomonas aeruginosa, UniProt Q05097); experiment: 1H-15N TROSY NMR with 15N LecA; conditions: 4 mM analogs of 1, 1 mM marketed hydroxamates
T2 construct: made in house
Procedure: (§1) The ^1H-^15N TROSY pulse sequence trosyf3gpphsi19 with 128 increments and 32 scans per increment was applied for 0.15 mM ^15N LecA and 0.07 mM LecB in HBS/Ca^2+ buffer (20 mM HEPES pH 7.4, 150 mM NaCl, 10 mM CaCl2, 10% D2O and 100 µM sodium trimethylsilylpropanesulfonate (DSS) as internal reference) at 310 K. The ^1H-^15N HSQC pulse sequence hsqcf3gpph19 with 128 increments and 8 scans per increment was applied for 0.1 mM ^15N DC-SIGN and Langerin CRD in HBS/Ca^2+ buffer at 298 K. For screening of 650 non-fluorinated fragments of the general library against ^15N LecA, a mix of 10 compounds at 1 mM each was combined with 0.15 mM ^15N LecA in HBS/Ca^2+ buffer (20 mM HEPES pH 7.4, 150 mM NaCl, 10 mM CaCl2, 10% D2O and 100 µM sodium trimethylsilylpropanesulfonate (DSS) as internal reference, whereas the fragments with the MBP scaffolds were validated separately at 1 mM. Similarly, 9 nonfluorinated fragments from the MBP library were screened against ^15N-labeled DC-SIGN, LecA and LecB. To validate the fragment binding to proteins, we recorded ^1H-^15N HSQC and TROSY NMR of proteins in the presence of DMSO as negative control and 2 mM fragments in HBS/Ca^2+ buffer. Natural ligands were used as positive controls at 1 mM MeGal, MeFuc and 30 mM D-mannose to LecA/LecB and DC-SIGN CRD/Langerin CRD, respectively. Titration experiments with ^15N-labeled DC-SIGN CRD or LecB were recorded in HBS/Ca^2+ buffer with 30 mM CaCl2 and 0.25 to 4–8 mM malonic acid derivatives. The Kd values were calculated according to the one-site-binding model in Origin(Pro) 2020b (OriginLab Corp., USA). Ligand efficiency calculations were done according to Eq. (1) for a temperature of 298 K and 310 K for DC-SIGN CRD and LecB, respectively.1 LE=RTlnKd/HA, with the temperature T [K], the gas constant R [kcal mol^−1 K^−1], and the number of non-hydrogen atoms HA[56].
(§2) All data were processed with NMRpipe[65] and analyzed with CcpNmr analysis. For data analysis, the protein fingerprint of ^15N DC-SIGN (Table S7) or Langerin CRD was assigned as reported previously. The ^1H-^15N TROSY resonances of ^15N LecA and ^15N LecB were indexed with IDs due to a lack of protein backbone resonance assignment (Tables S8-S9). Next, resonance IDs from protein spectra were transferred to the spectra obtained in the presence of compounds in order to compare the changes in chemical shift perturbations for the fast exchange peaks. The changes in chemical shift perturbations (CSPs) were calculated according to Eq. (2):2 △δ=1/2△δH2+α△δN^2 in which δ is the difference in chemical shift (in ppm) and α is an empirical weighting factor of 0.14 for all amino acid backbone resonances. The threshold value was set based on three independent measurements of reference spectra to 0.01 ppm for LecA, LecB, DC-SIGN CRD and Langerin CRD.

5FW LecA (PA-IL) = biological target: T3, 5FW LecA (PA-IL) (Pseudomonas aeruginosa, UniProt Q05097); experiment: PrOF NMR with 5-fluorotryptophan-labeled LecA; conditions: for LE: ligand efficiency calculated from Kd for LecA, 310 K
T3 construct: made in house
Procedure: PrOF NMR was performed as reported previously. Briefly, 150 µM 5FW LecA was recorded alone and in the presence of DMSO or 2–4 mM compounds in TBS/Ca^2+ buffer. The difference in chemical shift perturbations of W42 in 5FW LecA free vs bound forms was followed to determine Kd values of compounds. The Kd values were calculated according to the one-site-binding model in Origin(Pro) 2020b (OriginLab Corp., USA) from two or three independent titrations. Ligand efficiency values were calculated according to Eq. (1) for a temperature of 310 K.

LecA [2] = biological target: T1, LecA; experiment: Competitive 19F T2-filtered NMR with reporter 5; conditions: 0.1 mM 5, 10 mM CaCl2, 3 mM competitor
Procedure: The analogs of 1 (5) and 58 (61) were used as fluorinated spy molecules in ^19F T2-filtered NMR experiments. Two samples containing 0.1 mM 5 or 61 alone or a 10 µM protein in TBS/EDTA buffer followed by addition of 10 mM CaCl2 and the carbohydrates: 1 mM MeGal (LecA), 1 mM MeFuc (LecB/BambL) and 30 mM D-mannose (DC-SIGN/Langerin). Similarly, 0.1 mM 5 was used to prioritize hydroxamate derivatives, where 3 mM analogs of 1 were added to the samples instead of the carbohydrates. The ^19F and ^19F T2-filtered spectra were recorded with 64 scans, a spectral width of 5 ppm, a transmitter offset at −155.5 ppm (5) and −155.5 ppm (61), the acquisition time of 0.8 s, 2 s relaxation time applying a T2-filter of 384 ms. All spectra were analyzed as described above.

DC-SIGN CRD (CD209) = biological target: T4, DC-SIGN CRD (CD209) (Homo sapiens, UniProt Q9NNX6); experiment: 1H-15N HSQC NMR with 15N DC-SIGN CRD
T4 construct: the carbohydrate recognition domain (CRD) of DC-SIGN in ^1H-^15N HSQC/TROSY NMR experiments; made in house
T4 sequence (Q9NNX6 263-378 limits assumed): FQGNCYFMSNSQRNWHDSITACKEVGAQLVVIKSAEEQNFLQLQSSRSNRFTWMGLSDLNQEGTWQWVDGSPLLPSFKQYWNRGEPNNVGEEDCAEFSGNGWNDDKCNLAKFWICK
Procedure: as §1, §2

T1 sequence (Q05097 whole entry): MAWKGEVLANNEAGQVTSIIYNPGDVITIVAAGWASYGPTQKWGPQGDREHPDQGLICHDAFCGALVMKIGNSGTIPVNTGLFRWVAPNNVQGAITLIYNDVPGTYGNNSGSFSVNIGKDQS
T2 sequence (Q05097 whole entry): as above
T3 sequence (Q05097 2-122): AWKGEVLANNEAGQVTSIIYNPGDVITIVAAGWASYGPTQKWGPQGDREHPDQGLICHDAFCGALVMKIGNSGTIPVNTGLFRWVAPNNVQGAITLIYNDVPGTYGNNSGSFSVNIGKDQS

| SMILES | Inhibition in FP (LecA [1]) | inhibition at 10000 µM (LecA [1]) | binding to 15N LecA in TROSY NMR (15N LecA) | further results |
| --- | --- | --- | --- | --- |
| O=C(Cc1ccc(Br)cc1)NO [compound 11] | 14–16% and 14 ± 1% | – | – | – |
| O=C(CC=Cc1ccccc1)NO [compound 42] | – | 13 ± 3% | not tolerated | – |
| COc1ccc(CCCC(=O)NO)cc1 [compound 40] | 27 ± 1% | 27 to 39% | – | – |
| Cc1ccc(CCCC(=O)NO)cc1 [compound 36] | 35 ± 3% | 27 to 39% | slightly improved binding | Kd (5FW LecA (PA-IL)): 3.6 ± 2.2 mM; LE (5FW LecA (PA-IL)): 0.25 kcal mol^−1 HA^−1 |
| O=C(CC1CCCCC1)NO [compound 6] | – | 21 ± 1% | preserved its binding | Kd (5FW LecA (PA-IL)): 4.4 ± 0.6 mM; LE (5FW LecA (PA-IL)): 0.30 kcal mol^−1 HA^−1 |
| O=C(COCCCc1ccccc1)NO [compound 44] | – | 17 ± 2% | – | – |
| O=C(CCCc1ccc([N+](=O)[O-])cc1)NO [compound 39] | 4 ± 2% | – | – | – |
| O=C(CCCc1ccccc1)NO [compound 35, N-hydroxy-4-phenylbutanamide] | – | 26 ± 1% | preserved the binding | Kd (5FW LecA (PA-IL)): 4.6 ± 0.9 mM; LE (5FW LecA (PA-IL)): 0.26 kcal mol^−1 HA^−1; competition of reporter 5 from LecA (recovery of 19F peak) (LecA [2]): recovered; also recorded: displaced |
| Cc1ccc(CC(=O)NO)cc1 [compound 9] | 14–16% and 16 ± 2% | – | – | – |
| O=C(CCCc1ccc(O)cc1)NO [compound 41] | 39 ± 1% | 27 to 39% | – | – |
| CN(O)C(=O)Cc1ccccc1 [compound 8] | – | 20 ± 3% | not tolerated | – |
| O=C(O)C(F)(CC1CCC1)C(=O)O [compound 61] | – | – | – | binding to 5FW LecA (perturbation of W42) in PrOF NMR (5FW LecA (PA-IL); 2 mM compound): perturbed W42; also recorded: strongest perturbation of W42; W42 [ppm] (5FW LecA (PA-IL); 19F resonance of 0.15 mM 5FW LecA with 2 mM compound, DMSO 120.50): 120.32 ppm; W2 [ppm] (5FW LecA (PA-IL); 19F resonance of 0.15 mM 5FW LecA with 2 mM compound, DMSO 121.43): 121.46 ppm; W33 [ppm] (5FW LecA (PA-IL); 19F resonance of 0.15 mM 5FW LecA with 2 mM compound, DMSO 121.67): 121.73 ppm; W84 [ppm] (5FW LecA (PA-IL); 19F resonance of 0.15 mM 5FW LecA with 2 mM compound, DMSO 123.50): 123.52 ppm; Kd (DC-SIGN CRD (CD209); 15N DC-SIGN CRD, titration, one-site binding model, 30 mM CaCl2): 1.9 mM; LE (DC-SIGN CRD (CD209); ligand efficiency calculated from Kd for DC-SIGN CRD, 298 K): 0.28 kcal mol^−1 HA^−1 |
| O=C(CCCc1cccs1)NO [compound 37] | – | 25 ± 3% | – | – |
| COc1ccc(CC(=O)NO)cc1 [compound 15] | 14–16% and 16 ± 4% | – | – | – |
| Cc1ccccc1CC(=O)NO [compound 10] | 14–16% and 14 ± 4% | – | – | – |
| COc1cccc(C(O)=CC(=O)NO)c1 [compound 31] | – | 9 ± 2% | – | – |
| O=C(CCCc1ccc(Br)cc1)NO [compound 38] | – | 25 ± 1% | – | – |
| O=C(COCCc1ccccc1)NO [compound 43] | – | 8 ± 3% | not tolerated | – |
| O=C(Cc1ccccc1)NO [compound 2, N-hydroxy-2-phenylacetamide] | 18 ± 1% | 18.3 ± 1% | preserved the binding | Kd (5FW LecA (PA-IL)): 6.1 ± 0.9 mM; competition of reporter 5 from LecA (recovery of 19F peak) (LecA [2]): recovered |
| CONC(=O)Cc1ccccc1 [compound 7] | lost their binding and inhibitory effect; also recorded: No inhibiton | – | not tolerated | – |
